Data: US12214036B2, “Combination therapy comprising AXL/MER and PD-1/PD-L1 inhibitors” (Incyte Corporation, priority 2020, dated 2025)

Experiments:
179 kinases (c-Met) = assay: Comprehensive kinase study (179 kinases); format: biochemical; settings: evaluated at 200 nM
Description: Compound 1 was also evaluated at 200 nM in a comprehensive kinase study, which included 179 kinases. […] The mode of inhibition with respect to ATP concentration was evaluated using a MER kinase assay.

[1] = test system: BAF3 cells expressing AXL; assay: BAF3-AXL cell proliferation assay (CellTiter-Glo); format: cell-based; settings: Mus musculus, 48 hours, 2% FBS
From the text: To evaluate the cellular potency and selectivity within the TAM receptor family, mouse BAF3 cell lines with stable expression of AXL, MER, or TYRO3 were generated.
The cytoplasmic domain of AXL, MER, or TYRO3 fused with dimerization sequence and HA tag was cloned into a pMSCV (murine stem cell virus) vector with a puromycin-resistance marker to generate three constructs individually by electroporation into BAF3 cells. Single clones that were IL-3-independent and puromycin-resistant were selected and characterized. To evaluate effects on BAF3 cell proliferation, 1000 cells/well of BAF3, BAF3-AXL, BAF3 MER, or BAF3-TYRO3 cells were treated in the presence or absence of Compound 1 at various concentrations (10 concentration points with a three-fold dilution factor from the highest concentration of 10 μM) diluted in RPMI-1640 with 2% FBS for 48 hours in a 384-well plate. Cell viability was measured by ATP assay (CellTiter-Glo Assay, Promega, Madison, Wis.) according to the manufacturer's procedure. The data were converted to percent inhibition relative to DMSO control, and IC50 curves were fitted using GraphPad Prism software.

CTG-2041 tumors = assay: Sarcoma PDX model CTG-2041 (angiosarcoma); format: in vivo, athymic nude mice
Description: Macrophages were allowed to thaw on ice before being lysed with 250 μL/well of 1× Lysis Buffer (Cell Signaling Technology; #9803) and Halt protease and phosphatase inhibitors (ThermoFisher Scientific) for 1 hour at 4° C. The lysed cells were scraped and transferred to an Eppendorf vial on ice. The lysates were centrifuged at 12,700 rpm for 15 minutes at 4° C. PDX tumors were weighed and homogenized with lysis buffer supplemented with protease and phosphatase inhibitor cocktails (Roche, Basel, Switzerland; #11836170001). Tumors were lysed on ice for 30 minutes, followed by centrifugation at 13,000 rpm for 10 minutes. Protein lysates were quantified using BCA Protein Assay Kit (Pierce, ThermoFisher Scientific; #23225). Lysates were transferred to a new tube together with 6× Laemmli SDS sample buffer (Alfa Aesar, Haverhill, Mass.) and the samples were heated for 6 minutes at 95° C. Approximately 50 μg of protein sample was loaded per well using Novex™ 8-16% Tris-Glycine Mini Gels or 4-12% Tris-Glycine Novex WedgeGels (Invitrogen, Carlsbad, Calif.). The proteins were transferred to a nitrocellulose membrane using an iBlot (ThermoFisher Scientific) dry blotting system. The membranes were blocked with 0.5% nonfat dry milk in wash buffer (100 mM NaCl, 10 mM Tris-HCl, pH 8.0, 0.1% Tween 20) for 1 hour at room temperature. The primary antibody used for pMER was from PhosphoSolutions (Aurora, Colo.; #p186-749). The remaining antibodies were obtained from Cell Signaling Technology: MER (#4319), pAXL (#5724), AXL, (#4566), GAS6 (#67202), pAKT (#4060), AKT (#9272), and β-Actin (#4970). Primary antibodies were added at 1:500 and 1:1000, respectively, in 0.5% milk/wash buffer and rocked overnight at 4° C. The membranes were washed three times in wash buffer before incubation with the secondary antibody (anti-rabbit IgG1-HRP; Cell Signaling Technology) at 1:2500 in 0.5% milk/wash buffer for 2 hours at room temperature. The membranes were washed again before the bands were detected with SuperSignal West Dura Extended Duration Chemiluminescent substrate (ThermoFisher Scientific) and were visualized using the Fluorochem M Digital Imager (Protein Simple, San Jose, Calif.).
MBT-2 cells were obtained from the Japanese Collection of Research Bioresources Cell Bank and were maintained in DMEM supplemented with 10% FBS. MC38 cells were obtained from the NCI. 4T1 cells were obtained from ATCC and maintained in RPMI media supplemented with 10% FBS. For MBT-2 experiments, 5×10^5 MBT-2 cells were inoculated subcutaneously into the right hind flank of 6- to 8-week-old C3H mice or athymic nude mice (Charles River Laboratories, Wilmington, Mass.). For MC38 studies, 12-week old female C57BL/6 mice were inoculated with brei of MC38 tumors (in-vivo passage 6) into the right hind flank. For 4T1 studies, 7.5×10^5 4 T1 cells were inoculated subcutaneously into the right hind flank of 6- to 8-week-old female BALB/c mice or athymic nude mice (Charles River Laboratories). Mice were randomized by tumor volume with n=10-12 per group. Compound 1 was dosed orally twice a day (BID) continuously from the start to the end of study. In the MC38 study, anti-programmed death ligand 1 (PD-L1) (BE0101, Bio X Cell, West Lebanon, NH) was dosed intraperitoneally at 15 mg/kg twice a week. […] Mice were monitored for tumor growth and overt tolerability over the course of the experiment. […]

In the case of `CC(C)C(=O)N1CCC(c2cc(-c3ccc(NC(=O)c4cn(C(C)C)c(=O)n(-c5ccccn5)c4=O)cc3)c3c(N)ncnn23)CC1` [Compound 1, N-(4-(4-Amino-7-(1-isobutyrylpiperidin-4-yl)pyrrolo[1,2-f][1,2,4]triazin-5-yl)phenyl)-1-isopropyl-2,4-dioxo-3-(pyridin-2-yl)-1,2,3,4-tetrahydropyrimidine-5-carboxamide], the “inhibition of other kinases” value (179 kinases (c-Met)) is reported as “did not inhibit any other kinases”, the “selectivity for AXL and MER compared to c-Met” value (179 kinases (c-Met)) is reported as “approximately 60 fold” and the GI50 [1] is reported as 16 ± 11 nM. The TGI (CTG-2041 tumors; CTG-2041, equivalent activity at 10, 30 and 100 mg/kg BID oral, FIG. 9A) was 95%, the “GAS6 levels in tumors (Western blot)” value (CTG-2041 tumors; CTG-2041 tumors, FIG. 9D) was “increased” and the “pAKT in tumors (Western blot)” value (CTG-2041 tumors; CTG-2041 tumors, FIG. 9D) was “inhibited”. The “pAXL and pMER in tumors (Western blot)” value (CTG-2041 tumors; CTG-2041 tumors, FIG. 9D) was “inhibited” and the “total MER levels in tumors (Western blot)” value (CTG-2041 tumors; CTG-2041 tumors, FIG. 9D) was “increased”.
